How the values were obtained:
[1] = biological target: rhesus monkey bombesin receptor subtype-3 (rhesus monkey) (UniProt Q6H2Y3); assay: cell-based or functional assay
[2] = test system: rhesus monkey BRS3 receptor; assay: Functional expression of rhesus monkey BRS3 in aequorin-expressing reporter cell line 293-AEQ17 (luminescence, fractional response); assay type: cell-based; details: 293-AEQ17 cells transfected with rhesus monkey BRS3 plasmid, aequorin light emission, read-out: EC50 value for activation of the rhesus monkey BRS3 receptor
rhesus monkey BRS3 receptor, sequence (as listed by the source): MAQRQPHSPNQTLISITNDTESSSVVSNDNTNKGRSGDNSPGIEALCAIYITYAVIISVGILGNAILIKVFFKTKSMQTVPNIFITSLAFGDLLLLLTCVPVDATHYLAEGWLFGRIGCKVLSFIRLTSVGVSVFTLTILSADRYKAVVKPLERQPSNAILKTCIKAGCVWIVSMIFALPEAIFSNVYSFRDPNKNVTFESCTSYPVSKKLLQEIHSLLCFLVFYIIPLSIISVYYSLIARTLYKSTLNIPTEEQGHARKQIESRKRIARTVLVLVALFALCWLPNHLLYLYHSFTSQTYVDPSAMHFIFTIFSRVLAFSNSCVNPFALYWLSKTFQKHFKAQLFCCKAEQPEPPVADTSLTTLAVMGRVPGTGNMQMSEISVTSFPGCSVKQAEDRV
Procedure: Measurement of rhesus monkey BRS3 receptor expression in the aequorin-expressing stable reporter cell line 293-AEQ17 (Button et al., 1993. Cell Calcium 14: 663-671) was performed using a Luminoskan RT luminometer (Labsystems Inc., Gaithersburg, Md.) controlled by custom software written for a Macintosh PowerPC 6100. 293-AEQ17 cells (8×10^5 cells plated 18 hours before transfection in a T75 flask) were transfected with 22 μg of rhesus monkey BRS3 receptor plasmid DNA: 264 μg lipofectamine.
Following approximately 40 hours of expression, the apo-aequorin in the cells was charged for 4 hours with coelenterazine (10 μM) under reducing conditions (300 μM reduced glutathione) in ECB buffer (140 mM NaCl, 20 mM KCl, 20 mM HEPES-NaOH [pH=7.4], 5 MM glucose, 1 mM MgCl2, 1 mM CaCl2, 0.1 mg/ml bovine serum albumin). The cells were harvested, washed once in ECB medium and resuspended to 500,000 cells/ml. 100 μl of cell suspension (corresponding to 5×10^4 cells) was then injected into the test plate containing the BRS3 agonist peptide D-Tyr6-betaAla11-Phe13-Nle14]bombesin6-14, and the integrated light emission was recorded over 30 seconds, in 0.5-second units. 20 μL of lysis buffer (0.1% final Triton X-100 concentration) was then injected and the integrated light emission recorded over 10 seconds, in 0.5-second units. […]

[3] = test system: all three human bombesin receptor subtypes; details: literature statement, Pradhan et al., Eur. J. Pharmacol. 343: 275-87 (1998); cited from earlier work

rhesus monkey bombesin receptor subtype-3 (rhesus monkey), sequence (Q6H2Y3 whole entry): as the sequence (as listed by the source) above

EC50 value for activation (aequorin luminescence, fractional response, in transfected 293-AEQ17 cells) [1] [µM]	Substance	EC50 [2] [µM]	affinity for all three human bombesin receptor subtypes [3]
0.01	[D-Tyr6-betaAla11-Phe13-Nle14]bombesin(6-14) (peptide)		
	[D-Tyr6-betaAlal 11-Phe13-Nle14] bombesin(6-14) [dYB]	0.01	high affinity

— US20070037219A1, “Rhesus monkey bombesin receptor subtype-3 (brs-3), nucleotides encoding same, and uses thereof” (priority 2003, published 2007)
